According to ChEMBL document CHEMBL4765408, “Design and synthesis of benzylidenecyclohexenones as TrxR inhibitors displaying high anticancer activity and inducing ROS, apoptosis, and autophagy” (Eur J Med Chem, 2020):
The source made the active and inactive calls. The calls are words filed in the database; no cut-off is given here.

Assays:
MDA-MB-231 [1] = assay: Induction of reactive oxygen species generation in human MDA-MB-231 cells measured after 24 hrs by DCFH-DA probe based flow cytometry; assay type: functional, cell-based
KB = assay: Antiproliferative activity against human KB cells after 72 hrs by sulforhodamine B assay; assay type: functional, cell-based
[2] = Inhibition of TrxR in human MDA-MB-231 cells measured after 72 hrs by colorimetric method; assay type: cell-based
A549 = assay: Antiproliferative activity against human A549 cells after 72 hrs by sulforhodamine B assay; assay type: functional, cell-based; conditions: A549, 72 h
MDA-MB-231 [3] = assay: Antiproliferative activity against human MDA-MB-231 cells after 72 hrs by sulforhodamine B assay; assay type: functional, cell-based; conditions: MDA-MB-231, 72 h
MCF7 = assay: Antiproliferative activity against human MCF7 cells after 72 hrs by sulforhodamine B assay; assay type: functional, cell-based; conditions: MCF7, 72 h
[4] = Antiproliferative activity against human KB-VIN cells after 72 hrs by sulforhodamine B assay; assay type: functional, cell-based; conditions: KBVIN
MDA-MB-231 [5] = assay: Down regulation of TrxR1 expression in human MDA-MB-231 cells at 1.8 uM measured after 72 hrs by Western blot analysis; assay type: functional, cell-based
Rattus norvegicus = organism: Rattus norvegicus; assay: Inhibition of purified rat liver TrxR measured after 75 mins in presence of NADPH by DTNB based assay
MDA-MB-231 [6] = assay: Induction of autophagy in human MDA-MB-231 cells transfected with mRFP-eGFP-LC3 assessed as accumulation of autolysosome by measuring increase in red fluorescence at 1.8 uM measured after 24 hrs by confocal laser scanning microscopy; assay type: functional, cell-based
MDA-MB-231 [7] = assay: Induction of autophagy in human MDA-MB-231 cells transfected with mRFP-eGFP-LC3 assessed as increase in LC3-II expression at 1.8 uM measured after 72 hrs by Western blot analysis; assay type: functional, cell-based
MDA-MB-231 [8] = assay: Antitumor activity against human MDA-MB-231 cells xenografted in BALB/c nude mouse assessed as reduction in tumor weight at 10 mg/kg, ip measured at 2 days interval for 21 days relative to control; assay type: functional; set-up: scale not given: the % may be the effect or the level left; conditions: time 2 day
MDA-MB-231 [9] = assay: Induction of apoptosis in human MDA-MB-231 cells assessed as activation of caspase-3 cleavage at 1.8 uM measured after 72 hrs by Western blot analysis; assay type: functional, cell-based
MDA-MB-231 [10] = assay: Induction of autophagy in human MDA-MB-231 cells transfected with mRFP-eGFP-LC3 assessed as accumulation of autophagosomes by measuring increase in […] fluorescence at 1.8 uM measured after 24 hrs by confocal laser scanning microscopy; assay type: functional, cell-based
MDA-MB-231 [11] = assay: Induction of apoptosis in human MDA-MB-231 cells at 1.8 uM measured after 72 hrs by APC-Annexin V/7-AAD staining based flow cytometry relative to control; assay type: functional

In the case of `COc1cc(/C=C2\CCC=CC2=O)cc(OC)c1OC`, the Activity (MDA-MB-231 [1]) is reported as “Active”, the IC50 (KB) is reported as 880 nM and the IC50 [2] is reported as 110 nM. For the same molecule, the IC50 (A549) was 4250 nM, the IC50 (MDA-MB-231 [3]) was 670 nM and the IC50 (MCF7) was 5260 nM. The IC50 [4] was 4750 nM.
For `COc1cc(OC)c(/C=C2\CCC=CC2=O)c(OC)c1`, the IC50 (KB) was 5820 nM, the IC50 (A549) was 4700 nM and the IC50 (MDA-MB-231 [3]) was 5070 nM. For the same molecule, the IC50 (MCF7) was 9080 nM and the IC50 [4] was 6450 nM.
`O=C1C=CCC/C1=C\c1ccccc1OC(F)(F)F` showed an IC50 (MDA-MB-231 [3]) of 1010 nM.
With `COc1cc(/C=C/C(=O)N2CCC=CC2=O)cc(OC)c1OC` [PIPLARTINE] the Activity (MDA-MB-231 [5]) was “Active”, the Activity (MDA-MB-231 [1]) was “Active” and the IC50 (KB) was 1670 nM. The inhibition (Rattus norvegicus) was “Active”, the IC50 [2] was 1520 nM and the Activity (MDA-MB-231 [6]) was “Active”. The Activity (MDA-MB-231 [7]) was “Active”, the IC50 (A549) was 3200 nM and the Activity (MDA-MB-231 [8]) was 44.9%. For the same molecule, the Activity (MDA-MB-231 [9]) was “Active”, the IC50 (MDA-MB-231 [3]) was 3720 nM and the IC50 (MCF7) was 4400 nM. For the same molecule, the Activity (MDA-MB-231 [10]) was “Active”, the Activity (MDA-MB-231 [11]) was “Active” and the IC50 [4] was 7850 nM.
With `COc1cc(/C=C2\CN(S(=O)(=O)c3ccc(C)cc3)C=CC2=O)cc(OC)c1OC` the IC50 (A549) was 20200 nM, the IC50 (MDA-MB-231 [3]) was 22200 nM and the IC50 (MCF7) was 19200 nM.
In the case of `O=C1C=CCC/C1=C\c1cccc(OC(F)(F)F)c1`, the IC50 (MDA-MB-231 [3]) is reported as 820 nM.
`COc1cc(/C=C2\CCC=C(I)C2=O)cc(OC)c1OC` gave an IC50 (KB) of 3670 nM, an IC50 (A549) of 4860 nM and an IC50 (MDA-MB-231 [3]) of 670 nM. It also gave an IC50 (MCF7) of 5330 nM and an IC50 [4] of 5310 nM.
With `COc1ccc(/C=C2\CCC=CC2=O)cc1[N+](=O)[O-]` the Activity (MDA-MB-231 [1]) was “Active”, the IC50 (KB) was 1360 nM and the IC50 [2] was 630 nM. The IC50 (A549) was 1480 nM, the IC50 (MDA-MB-231 [3]) was 590 nM and the IC50 (MCF7) was 1680 nM. It also gave an IC50 [4] of 1630 nM.
For `COc1cc(/C=C2\CN(S(=O)(=O)c3ccccc3)C=CC2=O)cc(OC)c1OC`, the IC50 (A549) was 22400 nM, the IC50 (MDA-MB-231 [3]) was 23300 nM and the IC50 (MCF7) was greater than 25000 nM.
For `O=C1C=CCC/C1=C\c1cccnc1`, the IC50 (KB) was 1520 nM, the IC50 (A549) was 1510 nM and the IC50 (MDA-MB-231 [3]) was 1050 nM. The IC50 (MCF7) was 2030 nM and the IC50 [4] was 2810 nM.
For `O=C1C=CCC/C1=C\c1cnc2ccccc2c1`, the IC50 (KB) was 920 nM, the IC50 (A549) was 4450 nM and the IC50 (MDA-MB-231 [3]) was 640 nM. It also gave an IC50 (MCF7) of 5250 nM and an IC50 [4] of 5380 nM.
For `CCOc1ccc(/C=C2\CCC=CC2=O)cc1OC`, the IC50 (KB) was 1280 nM, the IC50 (A549) was 3640 nM and the IC50 (MDA-MB-231 [3]) was 600 nM. For the same molecule, the IC50 (MCF7) was 3950 nM and the IC50 [4] was 4800 nM.
`COc1cccc(/C=C2\CCC=CC2=O)c1` showed an IC50 (KB) of 1550 nM, an IC50 (A549) of 1480 nM and an IC50 (MDA-MB-231 [3]) of 1060 nM. For the same molecule, the IC50 (MCF7) was 2030 nM and the IC50 [4] was 2570 nM.
`COc1cc(/C=C2\CCC=CC2=O)cc2ccccc12` gave an IC50 (KB) of 1500 nM, an IC50 (A549) of 1630 nM and an IC50 (MDA-MB-231 [3]) of 1630 nM. The IC50 (MCF7) was 3600 nM and the IC50 [4] was 2620 nM.
